Experimental data taken from US20020137929A1, “1 - (3-heterocyclylphenyl) isothiourea, -isourea, -guanidine and -amidine herbicidal agents” (Intellectual Property Department, BASF Aktiengesellschaft, priority 1998, published 2002).

Assays:
ZEAMX (Corn, Field) = test: Postemergence herbicidal evaluation; assay type: in vivo, Zea mays; settings: postemergence
In short: (§1)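 ~2-wk seedlings; postemergence spray, 40 psi; vehicle 1:1 acetone:water + 0.5% Tween 20; rate ≈0.0156–0.500 kg/ha; greenhouse hold; scored 4–5 wk after treatment, 0–9 scale vs control; repeat tests averaged.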

CYPSE (Flatsedge) [1] = test: Preemergence weed control under flooded paddy conditions; assay type: in vivo, Cyperus serotinus; settings: rated 3-4 weeks after treatment
In short: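 Herbicidal effect is scored visually on a 0-9 scale against an untreated control, three to four weeks after compounds are pipetted into the flood water (1.5 to 3 cm deep) over seeds planted in silt loam at 0.5 cm depth. Rates: about 0.0313 to 0.500 kg/ha.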

ORYSAT (Rice, Tebonnet) = test: Postemergence herbicidal evaluation; assay type: in vivo, Oryza sativa, (L.) Tebonnet; settings: postemergence
In short: as §1

[2] = tested on: CHEAL (Lambsquarters, Common); test: Preemergence herbicidal evaluation; assay type: in vivo, Chenopodium album; settings: preemergence, rated 4-5 weeks after treatment, 0-9 scale
In short: (§2)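 Each species is sown separately in potting soil over roughly an inch of soil before any emergence. The soil surface then receives an aqueous acetone spray delivering about 0.0156 to 0.500 kg/ha of compound. After four to five weeks, injury is scored from 0 to 9 relative to a control.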

[3] = tested on: CHEAL (Lambsquarters, Common); test: Postemergence herbicidal evaluation; assay type: in vivo, Chenopodium album; settings: postemergence
In short: as §1

[4] = tested on: GLXMAW (Soybean, Williams); test: Postemergence herbicidal evaluation; assay type: in vivo, Glycine max, (L.) Merr. cv Williams; settings: postemergence
In short: as §1

ABUTH (Velvetleaf) = test: Postemergence herbicidal evaluation; assay type: in vivo, Abutilon theophrasti; settings: postemergence
In short: as §1

GALAP (Galium) = test: Preemergence herbicidal evaluation; assay type: in vivo, Galium aparine; settings: preemergence, rated 4-5 weeks after treatment, 0-9 scale
In short: as §2

CASOB (Sicklepod) = test: Preemergence herbicidal evaluation; assay type: in vivo, Cassia obtusifolia; settings: preemergence, rated 4-5 weeks after treatment, 0-9 scale
In short: as §2

AMBEL (Ragweed, Common) [5] = test: Postemergence herbicidal evaluation; assay type: in vivo, Ambrosia artemisifolia; settings: postemergence
In short: as §1

CYPIR (Rice Flatsedge) = test: Postemergence weed control under flooded paddy conditions; assay type: in vivo, Cyperus iria; settings: postemergence weeds, rated 3 to 4 weeks after treatment
In short: (§3)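 Herbicidal effect is judged by eye on a 0–9 scale versus control, 3–4 weeks after dosing. Dosing is into flood water kept 1.5–3 cm over the soil, at about 0.0313–0.500 kg/ha in aqueous/acetone 50/50 v/v, on 3–5 cm weeds and 1.5–2.5-leaf rice seedlings.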

ECHCG (Barnyardgrass) = test: Postemergence herbicidal evaluation; assay type: in vivo, Echinochloa crus-galli; settings: postemergence
In short: as §1

AMBEL (Ragweed, Common) [6] = test: Preemergence herbicidal evaluation; assay type: in vivo, Ambrosia artemisifolia; settings: preemergence, rated 4-5 weeks after treatment, 0-9 scale
In short: as §2

CYPSE (Flatsedge) [7] = test: Postemergence weed control under flooded paddy conditions; assay type: in vivo, Cyperus serotinus; settings: postemergence weeds, rated 3 to 4 weeks after treatment
In short: as §3

`C=CCN1C(=O)C(CC(=O)NS(=O)(=O)CC)SC1=Nc1cc(-n2c(=O)cc(C(F)(F)F)n(C)c2=O)c(F)cc1Cl` (stereo not drawn) [Compound 104, 3-Allyl-2-{{2-chloro-5-[3,6-dihydro-3-methyl-2,6-dioxo-4-(trifluoromethyl)-1(2H)-pyrimidinyl]-4-fluorophenyl}imino}-N-(ethylsulfonyl)-4-oxo-5-thiazolidineacetamide] was tested, and the “Herbicidal rating ZEAMX” value (ZEAMX (Corn, Field); rate 0.0156 kg/ha) was 4.5, the “Herbicidal rating ZEAMX” value (ZEAMX (Corn, Field); rate 0.0313 kg/ha) was 4.5 and the “Herbicidal rating ZEAMX” value (ZEAMX (Corn, Field); rate 0.0625 kg/ha) was 6.0. For the same molecule, the “Herbicidal rating ZEAMX” value (ZEAMX (Corn, Field); rate 0.1250 kg/ha) was 8.0, the “CYPSE herbicidal effect rating” value (CYPSE (Flatsedge) [1]; 0.0313 kg/ha) was 0.0 and the “CYPSE herbicidal effect rating” value (CYPSE (Flatsedge) [1]; 0.1250 kg/ha) was 0.0. For the same molecule, the “CYPSE herbicidal effect rating” value (CYPSE (Flatsedge) [1]; 0.2500 kg/ha) was 0.0, the “Herbicidal rating ORYSAT” value (ORYSAT (Rice, Tebonnet); rate 0.0156 kg/ha) was 0.0 and the “Herbicidal rating ORYSAT” value (ORYSAT (Rice, Tebonnet); rate 0.0313 kg/ha) was 0.5. For the same molecule, the “Herbicidal rating ORYSAT” value (ORYSAT (Rice, Tebonnet); rate 0.0625 kg/ha) was 1.0, the “Herbicidal rating ORYSAT” value (ORYSAT (Rice, Tebonnet); rate 0.1250 kg/ha) was 2.0 and the CHEAL rating ([2]; 0.0625 kg/ha) was 0.0. It also gave a CHEAL rating ([2]; 0.1250 kg/ha) of 9.0, a CHEAL rating ([2]; 0.2500 kg/ha) of 9.0 and a CHEAL rating ([2]; 0.5000 kg/ha) of 9.0. The “Herbicidal rating CHEAL” value ([3]; rate 0.0156 kg/ha) was 0.0, the “Herbicidal rating CHEAL” value ([3]; rate 0.0313 kg/ha) was 2.0 and the “Herbicidal rating CHEAL” value ([3]; rate 0.0625 kg/ha) was 4.0. The “Herbicidal rating CHEAL” value ([3]; rate 0.1250 kg/ha) was 5.0, the “Herbicidal rating GLXMAW” value ([4]; rate 0.0156 kg/ha) was 4.5 and the “Herbicidal rating GLXMAW” value ([4]; rate 0.0313 kg/ha) was 5.5. The “Herbicidal rating GLXMAW” value ([4]; rate 0.0625 kg/ha) was 7.0, the “Herbicidal rating GLXMAW” value ([4]; rate 0.1250 kg/ha) was 8.5 and the “Herbicidal rating ABUTH” value (ABUTH (Velvetleaf); rate 0.0156 kg/ha) was 7.0. For the same molecule, the “Herbicidal rating ABUTH” value (ABUTH (Velvetleaf); rate 0.0313 kg/ha) was 7.0, the “Herbicidal rating ABUTH” value (ABUTH (Velvetleaf); rate 0.0625 kg/ha) was 9.0 and the “Herbicidal rating ABUTH” value (ABUTH (Velvetleaf); rate 0.1250 kg/ha) was 9.0. It also gave a GALAP rating (GALAP (Galium); 0.0625 kg/ha) of 0.0, a GALAP rating (GALAP (Galium); 0.1250 kg/ha) of 0.0 and a GALAP rating (GALAP (Galium); 0.2500 kg/ha) of 0.0. It also gave a GALAP rating (GALAP (Galium); 0.5000 kg/ha) of 6.0, a CASOB rating (CASOB (Sicklepod); 0.0625 kg/ha) of 0.0 and a CASOB rating (CASOB (Sicklepod); 0.1250 kg/ha) of 0.0. The CASOB rating (CASOB (Sicklepod); 0.2500 kg/ha) was 0.0, the CASOB rating (CASOB (Sicklepod); 0.5000 kg/ha) was 0.0 and the “Herbicidal rating AMBEL” value (AMBEL (Ragweed, Common) [5]; rate 0.0156 kg/ha) was 3.0. For the same molecule, the “Herbicidal rating AMBEL” value (AMBEL (Ragweed, Common) [5]; rate 0.0313 kg/ha) was 9.0, the “Herbicidal rating AMBEL” value (AMBEL (Ragweed, Common) [5]; rate 0.0625 kg/ha) was 9.0 and the “Herbicidal rating AMBEL” value (AMBEL (Ragweed, Common) [5]; rate 0.1250 kg/ha) was 9.0. The “Herbicidal rating CYPIR” value (CYPIR (Rice Flatsedge); Rate 0.0313 kg/ha) was 5.0, the “Herbicidal rating CYPIR” value (CYPIR (Rice Flatsedge); Rate 0.0625 kg/ha) was 9.0 and the “Herbicidal rating CYPIR” value (CYPIR (Rice Flatsedge); Rate 0.1250 kg/ha) was 9.0. For the same molecule, the “Herbicidal rating CYPIR” value (CYPIR (Rice Flatsedge); Rate 0.2500 kg/ha) was 9.0, the “Herbicidal rating ECHCG” value (ECHCG (Barnyardgrass); rate 0.0156 kg/ha) was 0.0 and the “Herbicidal rating ECHCG” value (ECHCG (Barnyardgrass); rate 0.0313 kg/ha) was 0.0. For the same molecule, the “Herbicidal rating ECHCG” value (ECHCG (Barnyardgrass); rate 0.0625 kg/ha) was 0.0, the “Herbicidal rating ECHCG” value (ECHCG (Barnyardgrass); rate 0.1250 kg/ha) was 3.0 and the AMBEL rating (AMBEL (Ragweed, Common) [6]; 0.0625 kg/ha) was 0.0. The AMBEL rating (AMBEL (Ragweed, Common) [6]; 0.1250 kg/ha) was 0.0, the AMBEL rating (AMBEL (Ragweed, Common) [6]; 0.2500 kg/ha) was 3.0 and the AMBEL rating (AMBEL (Ragweed, Common) [6]; 0.5000 kg/ha) was 9.0. For the same molecule, the “Herbicidal rating CYPSE” value (CYPSE (Flatsedge) [7]; Rate 0.0313 kg/ha) was 0.0, the “Herbicidal rating CYPSE” value (CYPSE (Flatsedge) [7]; Rate 0.1250 kg/ha) was 0.0 and the “Herbicidal rating CYPSE” value (CYPSE (Flatsedge) [7]; Rate 0.2500 kg/ha) was 0.0.
